{"source": "paper PMC4052546", "about": "(Pharmaceuticals, 2011)", "key": {"[1]": {"conditions": "rat, in vivo", "from_the_text": "An automated blood sampler (Culex ABS, Bioanalytical Systems, Inc. West Lafayette, IN) was used for rat blood sample collection.\n(§1) Three samples were collected during each phase of absorption, distribution, or elimination for full PK analysis on the first and last dosing days following intravenous bonus injection. Additionally, trough levels (pre-dose) samples were collected in between each dose to follow drug accumulation and a series PK approach (18 samples per animal) was used. Thus, each animal was dosed and plasma samples were obtained for up to three days. A total of 18 (0, 5, 15, 30, 45 min, 1, 2, 3, 6, 24.25, 48.167, 48.25, 48.5, 48.75, 49, 50, 51, and 54 h) samples were collected into cooled vials. 50 μL of blood per sample was collected pre-dosing and after dosing and 100 μL per sample was taken from 0.08 h to 56 h after dosing. During collection, blood samples were added into the vials, which contained dried heparin (50 units) on the bottom of each vial. Thus, a total blood volume of 1.75 mL was obtained from each rat during the three day treatment period (0.85 mL of blood on day 0, 0.1 mL on day 1, and 0.9 mL on day 2), which is 9.3% of the animals total blood volume. Subjects for replicated crossover design were followed FDA recommendation [22] with a 2 week wash out period. During wash-out period, if the catheter was blocked up by any reasons the jugular vein tubes were infused or replaced.\nThe area under the curve (AUC) was determined by the linear trapezoidal rule with extrapolation to infinity based on the concentration of the last time point divided by the terminal rate constant."}, "[2]": {"conditions": "more active; cited from earlier work"}, "[3]": {"conditions": "cited from earlier work"}, "[4]": {"assay": "Pharmacokinetics of AS and DHA in rat plasma after single and multiple intravenous AS injections (automated blood sampler, LC-MS/MS);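 as to all read-outs here: blood drawn through a jugular vein catheter by an automated sampling system, plasma drug levels measured by LC-MS/MS with positive electrospray ionization against standard curves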", "format": "in vivo, Sprague-Dawley rats", "conditions": "for AUC0–3 h / Cmin / Degree of Fluctuation = 100% × (Cmax − Cmin)/Cav / Cmax / MRT / Tmax / AUC(0-t) / AUC / half-life / average plasma concentration over 0–72 h (Cav = AUC0–72 h/72): 20 mg/kg i.v. daily for 3 days, male rats; for Cmax / MRT / Tmax / AUC(0-t) / AUC / half-life / average plasma concentration over 0–72 h (Cav = AUC0–72 h/72): male, Sprague-Dawley, rat, plasma, iv, 20 mg/kg; for AUC(0-t): read-out: AUC0–3 h; for AUC: read-out: AUCinfininty", "method": "The Culex ABS is a blood sampling and metabolism monitoring machine, which is controlled by its own internal computer. We were successful in evaluating PK for long-term periods by using this system. After jugular vein cannulation, study animals were individually placed in the system, which allowed for a micro-pump to infuse heparinized-saline (10 unit heparin/mL saline) at a rate of 1-2 μL/min to prevent coagulation within the catheter. Culex samples were obtained with precise blood volumes from the study animals and the total volume taken was less than 6% per day and 14% during the entire study period. Blood samples were maintained at 3 °C using Culex's temperature-controlled fractional collector. Plasma was separated from the blood samples and processed for drug extraction.\nas §1\nThe samples were vortexed vigorously (set at 10 or max setting) for 8–10 sec followed by a 10,000 × g centrifugation at 4 °C for 10 min. Aliquots (approximately 250 μL ea) of the undisturbed supernatants were transferred into a 96-well plate for LC-MS/MS analyses. […] Drugs were chromatographically separated using an acetonitrile/ammonium acetate gradient through a Waters XTerra C18 column (2.1 × 50 mm, 3.5 μm particle size) and corresponding pre-column. Quantification was done using the most abundant daughter ions following positive electrospray ionization. Chromatograms were analyzed using Xcalibur mass spectrometry software. The responses-concentrations standard curves were fitted and weighted.\nThe area under the curve (AUC) was determined by the linear trapezoidal rule with extrapolation to infinity based on the concentration of the last time point divided by the terminal rate constant. The bioequivalence (BE) evaluation of the two formulations were analyzed by using BE software (WinNonlin 5.2, Pharsight Co. Mountain View, CA. USA) in rats for a NDA application."}, "[5]": {"conditions": "male, Sprague-Dawley, iv, 20 mg/kg, 1 day"}, "[6]": {"conditions": "Chinese formulation (AS/NaHCO3), Period 1, Day 3"}, "[7]": {"conditions": "Chinese formulation (AS/NaHCO3), Period 2, Day 3"}, "[8]": {"conditions": "WRAIR formulation (AS/0.3M PBS Buffer), Period 1, Day 3"}, "[9]": {"conditions": "WRAIR formulation (AS/0.3M PBS Buffer), Period 2, Day 3"}, "[10]": {"conditions": "Chinese formulation (AS/NaHCO3), Period 1, Day 1"}, "[11]": {"conditions": "Chinese formulation (AS/NaHCO3), Period 2, Day 1"}, "[12]": {"conditions": "WRAIR formulation (AS/0.3M PBS Buffer), Period 1, Day 1"}, "[13]": {"conditions": "WRAIR formulation (AS/0.3M PBS Buffer), Period 2, Day 1"}}, "note": "“And” between values parts separate entries of the source, which are not always exact repeats. Equal entries are not always repeated. Where two headings read alike, the source gives them in different places."}
{"smiles": "C[C@H]1[C@@H](O)O[C@@H]2O[C@@]3(C)CC[C@H]4[C@H](C)CC[C@@H]1[C@@]24OO3", "note": "[DHA, dihydroartemisinin]", "values": [{"measurement": "90% CI for the difference between the two i.v. formulations, AUC1–3D", "setting": "[1]; Sprague-Dawley, iv", "value": "79.11–120.89%"}, {"measurement": "90% CI of the difference between the two intravenous formulations, AUCD3", "setting": "[1]; Sprague-Dawley, iv, 3 day", "value": "71.32–128.67%"}, {"measurement": "90% CI for T/R, Lower, AUCD1", "setting": "[1]; [5]", "value": 82.04, "unit": "%"}, {"measurement": "90% CI for T/R, Upper, AUCD1", "setting": "[1]; [5]", "value": 117.96, "unit": "%"}, {"measurement": "BE (bioequivalence), AUCD1", "setting": "[1]", "value": "Yes"}, {"measurement": "BE (bioequivalence), Cmax D1", "setting": "[1]", "value": "No"}, {"measurement": "90% CI between the two intravenous formulations, AUC0–3 h", "setting": "[1]; iv", "value": "82.04–117.96%"}, {"measurement": "activity compared with other artemisinin derivatives", "setting": "[2]", "value": "3-5 fold"}, {"measurement": "elimination half-life (t1/2)", "setting": "[3]", "value": "40 to 60", "unit": "min"}, {"measurement": "AUC0–3 h", "setting": "[4]; [6]", "value": "990.8 ± 224.7", "unit": "ng·h/mL"}, {"measurement": "Cmin", "setting": "[4]; [6]", "value": "2.96 ± 2.31", "unit": "ng/mL"}, {"measurement": "Degree of Fluctuation = 100% × (Cmax − Cmin)/Cav", "setting": "[4]; [6]", "value": "860% and 860.1 ± 121.1%"}, {"measurement": "AUC0–3 h", "setting": "[4]; [7]", "value": "905.2 ± 188.7", "unit": "ng·h/mL"}, {"measurement": "Cmin", "setting": "[4]; [7]", "value": "4.52 ± 2.25", "unit": "ng/mL"}, {"measurement": "Degree of Fluctuation = 100% × (Cmax − Cmin)/Cav", "setting": "[4]; [7]", "value": "844 ± 64", "unit": "%"}, {"measurement": "time at which Cmax was measured", "setting": "[4]; Chinese formulation, 20 mg/kg i.v., rats, period 1, day 1", "value": 15, "unit": "min"}, {"measurement": "time at which Cmax was measured", "setting": "[4]; Chinese formulation, 20 mg/kg i.v., rats, period 2, day 1", "value": 15, "unit": "min"}, {"measurement": "time at which Cmax was observed", "setting": "[4]; Chinese formulation, 20 mg/kg i.v., rats, period 2, day 3", "value": 15, "unit": "min"}, {"measurement": "Cmin", "setting": "[4]; [8]", "value": "6.59 ± 3.06", "unit": "ng/mL"}, {"measurement": "Cmin", "setting": "[4]; [9]", "value": "5.38 ± 3.77", "unit": "ng/mL"}, {"measurement": "time at which Cmax was measured", "setting": "[4]; WRAIR formulation, 20 mg/kg i.v., rats, period 1, day 1", "value": 15, "unit": "min"}, {"measurement": "Cmax", "setting": "[4]; [10]", "value": 3360, "unit": "ng/mL"}, {"measurement": "MRT", "setting": "[4]; [10]", "value": "22.8 ± 7.8", "unit": "min"}, {"measurement": "Tmax", "setting": "[4]; [10]", "value": 15, "unit": "min"}, {"measurement": "AUC(0-t)", "setting": "[4]; [10]", "value": 1570, "unit": "ng·h/mL"}, {"measurement": "AUC", "setting": "[4]; [10]", "value": "1570 ± 350", "unit": "ng·h/mL"}, {"measurement": "half-life", "setting": "[4]; Chinese formulation (AS/NaHCO3), Period 1, Day 1, read-out: t1/2 distribution (converted)", "value": "7.2 ± 1.2", "unit": "min"}, {"measurement": "half-life", "setting": "[4]; Chinese formulation (AS/NaHCO3), Period 1, Day 1, read-out: t1/2 elimination (converted)", "value": "45 ± 6", "unit": "min"}, {"measurement": "Cmax", "setting": "[4]; [6]", "value": 2780, "unit": "ng/mL"}, {"measurement": "MRT", "setting": "[4]; [6]", "value": "21 ± 3.6", "unit": "min"}, {"measurement": "Tmax", "setting": "[4]; [6]", "value": "10.2 ± 5.4", "unit": "min"}, {"measurement": "average plasma concentration over 0–72 h (Cav = AUC0–72 h/72)", "setting": "[4]; [6]", "value": 330, "unit": "ng·h/mL"}, {"measurement": "AUC(0-t)", "setting": "[4]; [6]", "value": 991, "unit": "ng·h/mL"}, {"measurement": "AUC", "setting": "[4]; [6]", "value": "994 ± 225", "unit": "ng·h/mL"}, {"measurement": "half-life", "setting": "[4]; Chinese formulation (AS/NaHCO3), Period 1, Day 3, read-out: t1/2 distribution (converted)", "value": "5.4 ± 0.6", "unit": "min"}, {"measurement": "half-life", "setting": "[4]; Chinese formulation (AS/NaHCO3), Period 1, Day 3, read-out: t1/2 elimination (converted)", "value": "40.8 ± 9", "unit": "min"}, {"measurement": "Cmax", "setting": "[4]; [11]", "value": 2690, "unit": "ng/mL"}, {"measurement": "MRT", "setting": "[4]; [11]", "value": "27.6 ± 8.4", "unit": "min"}, {"measurement": "Tmax", "setting": "[4]; [11]", "value": 15, "unit": "min"}, {"measurement": "AUC(0-t)", "setting": "[4]; [11]", "value": 1220, "unit": "ng·h/mL"}, {"measurement": "AUC", "setting": "[4]; [11]", "value": "1230 ± 266", "unit": "ng·h/mL"}, {"measurement": "half-life", "setting": "[4]; Chinese formulation (AS/NaHCO3), Period 2, Day 1, read-out: t1/2 distribution (converted)", "value": "7.2 ± 1.2", "unit": "min"}, {"measurement": "half-life", "setting": "[4]; Chinese formulation (AS/NaHCO3), Period 2, Day 1, read-out: t1/2 elimination (converted)", "value": "43.8 ± 10.2", "unit": "min"}, {"measurement": "Cmax", "setting": "[4]; [7]", "value": 2450, "unit": "ng/mL"}, {"measurement": "MRT", "setting": "[4]; [7]", "value": "22.8 ± 1.2", "unit": "min"}, {"measurement": "Tmax", "setting": "[4]; [7]", "value": 15, "unit": "min"}, {"measurement": "AUC(0-t)", "setting": "[4]; [7]", "value": 905, "unit": "ng·h/mL"}, {"measurement": "AUC", "setting": "[4]; [7]", "value": "910 ± 188", "unit": "ng·h/mL"}, {"measurement": "half-life", "setting": "[4]; Chinese formulation (AS/NaHCO3), Period 2, Day 3, read-out: t1/2 distribution (converted)", "value": "4.8 ± 0.6", "unit": "min"}, {"measurement": "half-life", "setting": "[4]; Chinese formulation (AS/NaHCO3), Period 2, Day 3, read-out: t1/2 elimination (converted)", "value": "43.2 ± 7.2", "unit": "min"}, {"measurement": "Cmax", "setting": "[4]; [12]", "value": 3150, "unit": "ng/mL"}, {"measurement": "MRT", "setting": "[4]; [12]", "value": "23.4 ± 4.8", "unit": "min"}, {"measurement": "Tmax", "setting": "[4]; [12]", "value": 15, "unit": "min"}, {"measurement": "AUC(0-t)", "setting": "[4]; [12]", "value": 1460, "unit": "ng·h/mL"}, {"measurement": "AUC", "setting": "[4]; [12]", "value": "1460 ± 211", "unit": "ng·h/mL"}, {"measurement": "half-life", "setting": "[4]; WRAIR formulation (AS/0.3M PBS Buffer), Period 1, Day 1, read-out: t1/2 distribution (converted)", "value": "7.2 ± 0.6", "unit": "min"}, {"measurement": "half-life", "setting": "[4]; WRAIR formulation (AS/0.3M PBS Buffer), Period 1, Day 1, read-out: t1/2 elimination (converted)", "value": "58.8 ± 8.4", "unit": "min"}, {"measurement": "Cmax", "setting": "[4]; [8]", "value": 2810, "unit": "ng/mL"}, {"measurement": "MRT", "setting": "[4]; [8]", "value": "20.4 ± 6.6", "unit": "min"}, {"measurement": "Tmax", "setting": "[4]; [8]", "value": 15, "unit": "min"}, {"measurement": "average plasma concentration over 0–72 h (Cav = AUC0–72 h/72)", "setting": "[4]; [8]", "value": 367, "unit": "ng·h/mL"}, {"measurement": "AUC(0-t)", "setting": "[4]; [8]", "value": 1100, "unit": "ng·h/mL"}, {"measurement": "AUC", "setting": "[4]; [8]", "value": "1110 ± 174", "unit": "ng·h/mL"}, {"measurement": "half-life", "setting": "[4]; WRAIR formulation (AS/0.3M PBS Buffer), Period 1, Day 3, read-out: t1/2 distribution (converted)", "value": "5.4 ± 0.6", "unit": "min"}, {"measurement": "half-life", "setting": "[4]; WRAIR formulation (AS/0.3M PBS Buffer), Period 1, Day 3, read-out: t1/2 elimination (converted)", "value": "54 ± 7.2", "unit": "min"}, {"measurement": "Cmax", "setting": "[4]; [13]", "value": 3520, "unit": "ng/mL"}, {"measurement": "MRT", "setting": "[4]; [13]", "value": "24 ± 2.4", "unit": "min"}, {"measurement": "Tmax", "setting": "[4]; [13]", "value": 15, "unit": "min"}, {"measurement": "AUC(0-t)", "setting": "[4]; [13]", "value": 1510, "unit": "ng·h/mL"}, {"measurement": "AUC", "setting": "[4]; [13]", "value": "1510 ± 293", "unit": "ng·h/mL"}, {"measurement": "half-life", "setting": "[4]; WRAIR formulation (AS/0.3M PBS Buffer), Period 2, Day 1, read-out: t1/2 distribution (converted)", "value": "8.4 ± 0.6", "unit": "min"}, {"measurement": "half-life", "setting": "[4]; WRAIR formulation (AS/0.3M PBS Buffer), Period 2, Day 1, read-out: t1/2 elimination (converted)", "value": "54.6 ± 4.2", "unit": "min"}, {"measurement": "Cmax", "setting": "[4]; [9]", "value": 3120, "unit": "ng/mL"}, {"measurement": "MRT", "setting": "[4]; [9]", "value": "23.4 ± 1.8", "unit": "min"}, {"measurement": "Tmax", "setting": "[4]; [9]", "value": 15, "unit": "min"}, {"measurement": "AUC(0-t)", "setting": "[4]; [9]", "value": 1040, "unit": "ng·h/mL"}, {"measurement": "AUC", "setting": "[4]; [9]", "value": "1050 ± 160", "unit": "ng·h/mL"}, {"measurement": "half-life", "setting": "[4]; WRAIR formulation (AS/0.3M PBS Buffer), Period 2, Day 3, read-out: t1/2 distribution (converted)", "value": "5.4 ± 8.4", "unit": "min"}, {"measurement": "half-life", "setting": "[4]; WRAIR formulation (AS/0.3M PBS Buffer), Period 2, Day 3, read-out: t1/2 elimination (converted)", "value": "52.8 ± 8.4", "unit": "min"}]}
